Source: US8703787B2, “Methods of using ALK inhibitors” (IRM LLC, priority 2011, dated 2014)

Assays:
NCI-H2228 cells = experiment: In vitro cell growth and proliferation (luciferase readout); assay type: cell-based; settings: Homo sapiens, 72 h; NCI-H2228 with EML4-ALK, luciferase-expressing, 3 days incubation
Experimental: NCI-H2228 cells were obtained from the American Type Culture Collection (ATCC) (Manassa, USA) and modified by viral infection to stably express luciferase. For cell growth and proliferation assays, 2250 cells in 50 μL of RPMI media (Gibco, Carlsbad, Calif.) containing 10% fetal bovine serum (FBS) (Gibco, Carlsbad, Calif.) were plated into solid bottom, white 384-well plates (Corning, Acton, Mass.) using μ-Fill instrumentation (Bio-Tek). Plates were incubated 1 hour in a 37° C. tissue culture incubator prior to the addition of compound using MiniTrak instrumentation (Perkin-Elmer). 50 nL of a 1:3 dilution plate of compounds was added to the assay plates, resulting in final concentrations of 10000, 3333, 1111, 370, 123, 41, 14, 4.6, 1.5, 0.5 and 0.17 nM. After compound addition, plates were incubated for 3 days at 37° C. in a tissue culture incubator. At day 3, plates were assayed for cell growth and proliferation by means of measuring luciferase activity in each individual well. In detail, 25 μL of BRIGHT-GLO® (Promega, Madison, Wis.) or BRITELITE™ (PerkinElmer, Waltham, Mass.) was added to each well. After 10 minutes of incubation at room temperature, plates were read using either an Analyst-GT or an Envision plate reader (Molecular Devices, Sunnyvale, Calif.). […]

NCI-H2228 tumors = experiment: Subcutaneous xenograft tumor model derived from NCI-H2228 cells; assay type: in vivo, mouse
Excerpt: The day of implantation, NCI-H2228 cells were harvested with 0.05% Trypsin/EDTA and resuspended in a mixture of RPMI 1640 serum-free medium and matrigel (BD Biosciences #354234, La Jolla, Calif.) at a ratio of 1:1. Five million cells were subcutaneously implanted into the right hind flank of SCID beige mouse. When the tumor size reached a volume of 300-400 mm3, the tumors were harvested and were cut into smaller pieces of 1-2 mm3 in culture medium for passage implanting subcutaneously. After the tumors were consecutively passaged three times in SCID beige mice, the tumors were considered as stock tumors for study implantation. The tumor pieces were kept in a mixture of RPMI1640 serum-free medium and matrigel at a ratio of 1:1 on wet ice for implanting in SCID beige mice. Implantation in […] mice: 2-3 pieces of the tumor with matrigel mixture were subcutaneously implanted into the right flank of the mice. After implantation, the tumors were callipered 3 times per week once tumors became palpable.
SCID beige mice bearing the H2228 tumors were randomized into 5 groups (n=4 mice per group) with an average tumor volume of 85±35 mm3. The test compound was administered by oral gavage. Its exposure in the tumor bearing female SCID beige mice was evaluated on day 14. Tumor growth was calculated by % T/C as follows: % T/C=(ΔT/ΔC)×100, where ΔT>0; or % T/C=(ΔT/ΔTI)×100, where ΔT<0. Changes in tumor volume (Δ volumes) for each treated (T) and control (C) group were calculated for each day tumors were measured by subtracting the median tumor volume on the day of first treatment (staging day) from the median tumor volume on the specified observation day.

[1] = system: crizotinib resistant NCI-H2228 tumors; experiment: Anti-tumor activity in crizotinib resistant NCI-H2228 xenograft tumors; assay type: in vivo, mouse
Experimental: The mouse xenograft tumors derived from NCI-H2228 were treated with crizotinib continuously at 50 mg/kg for 9 days, then 75 mg/kg for 9 days and then 100 mg/kg for 33 days. Alternatively, after xenograft tumors derived from NCI-H2228 were treated with crizotinib for 14 days at 100 mg/kg, the treatment with crizotinib was stopped for a few days until tumors re-grew. Once tumors re-grew, animals were treated with crizotinib at 100 mg/kg until tumors became resistant to crizotinib treatment. Tumors from individual animal were harvested when they became resistant to crizotinib. A few such resistant tumors were randomly selected for further studies as described below. Each resistant tumor were cut into small pieces at harvest and implanted into 5 animals; when tumor size was big enough in the 5 animals, the tumors were harvested and then implanted into 25 animals for compound testing. A piece of harvested tumors was also used for RNA extraction and subsequently sequencing of EML4-ALK transcript.

[2] = 4-wk GLP toxicology studies / exposure comparison; assay type: in vivo; settings: based on 4-wk GLP toxicology studies, predicted

| Structure (SMILES) | IC50 (NCI-H2228 cells) [nM] | animal body weight loss (NCI-H2228 tumors; dosed orally at 25 mg/kg once a day for 2 weeks) | anti-tumor activity (tumor regression) (NCI-H2228 tumors; dosed orally at 25 mg/kg once a day for 2 weeks, FIG. 1) | tolerability (NCI-H2228 tumors; mouse, in vivo, po, 25 mg/kg) | anti-tumor growth activity in crizotinib resistant NCI-H2228 ([1]; FIG. 2) | activity compared with crizotinib at 100 mg/kg ([1]; other crizotinib resistant NCI-H2228 tumors, FIG. 3) | exposure associated with 50 mg/kg in mouse relative to exposure at the MTD in humans [2] |
| --- | --- | --- | --- | --- | --- | --- | --- |
| Cc1cc(Nc2ncc(Cl)c(Nc3ccccc3S(=O)(=O)C(C)C)n2)c(OC(C)C)cc1C1CCNCC1 [Compound 1, 5-chloro-N2-(2-isopropoxy-5-methyl-4-(piperidin-4-yl)phenyl)-N4-[2-(propane-2-sulfonyl)-phenyl]-pyrimidine-2,4-diamine] | 11 | not observed | complete tumor regression | well tolerated | significant anti-tumor growth activity | better activity than crizotinib | below the exposure at the MTD in humans |
| CC(C)Oc1cc2c(cc1Nc1ncc(Cl)c(Nc3ccccc3S(=O)(=O)C(C)C)n1)C(=O)N(C1CCN(C)CC1)C2 [Compound 6, 6-{5-Chloro-4-[2-(propane-2-sulfonyl)-phenylamino]-pyrimidin-2-ylamino}-5-isopropoxy-2-(1-methyl-piperidin-4-yl)-2,3-dihydro-isoindol-1-one] | 16 |  |  |  |  |  |  |
